The values below come from patent US11713338B2, “Cyclic peptides multimers targeting α-4-β-7 integrin” (priority 2016, dated 2023).

Test [1] addresses T1, recombinant integrin α4β7 (Homo sapiens, UniProt P13612+P26010, DEL724-798).
T1 construct: purchased R&D Systems 5397-A3-050
T1 sequence (P13612 34-970 limits assumed): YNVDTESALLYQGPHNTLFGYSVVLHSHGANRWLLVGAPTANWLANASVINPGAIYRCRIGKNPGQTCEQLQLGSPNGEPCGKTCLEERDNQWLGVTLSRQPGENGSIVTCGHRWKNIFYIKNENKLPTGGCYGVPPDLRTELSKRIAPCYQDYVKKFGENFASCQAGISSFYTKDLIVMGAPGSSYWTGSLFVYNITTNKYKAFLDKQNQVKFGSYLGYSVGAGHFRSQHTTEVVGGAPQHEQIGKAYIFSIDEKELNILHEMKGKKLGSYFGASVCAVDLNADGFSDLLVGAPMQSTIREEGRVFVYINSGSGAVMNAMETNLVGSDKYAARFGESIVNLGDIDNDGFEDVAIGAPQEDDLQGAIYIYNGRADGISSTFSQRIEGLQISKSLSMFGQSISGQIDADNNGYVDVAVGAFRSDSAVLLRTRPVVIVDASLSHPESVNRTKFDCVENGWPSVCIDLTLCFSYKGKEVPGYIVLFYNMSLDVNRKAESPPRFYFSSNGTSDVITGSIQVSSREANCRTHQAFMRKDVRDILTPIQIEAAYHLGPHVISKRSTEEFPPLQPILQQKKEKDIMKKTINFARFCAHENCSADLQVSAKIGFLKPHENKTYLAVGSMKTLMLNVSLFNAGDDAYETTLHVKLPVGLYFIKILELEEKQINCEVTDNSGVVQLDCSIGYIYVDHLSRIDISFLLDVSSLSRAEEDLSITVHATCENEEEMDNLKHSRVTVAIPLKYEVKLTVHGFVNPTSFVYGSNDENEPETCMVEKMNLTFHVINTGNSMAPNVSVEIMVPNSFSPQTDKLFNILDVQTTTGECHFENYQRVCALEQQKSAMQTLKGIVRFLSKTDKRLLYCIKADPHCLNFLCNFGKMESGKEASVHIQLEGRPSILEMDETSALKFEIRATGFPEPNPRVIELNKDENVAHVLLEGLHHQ
T1 sequence (P26010 20-723 limits assumed): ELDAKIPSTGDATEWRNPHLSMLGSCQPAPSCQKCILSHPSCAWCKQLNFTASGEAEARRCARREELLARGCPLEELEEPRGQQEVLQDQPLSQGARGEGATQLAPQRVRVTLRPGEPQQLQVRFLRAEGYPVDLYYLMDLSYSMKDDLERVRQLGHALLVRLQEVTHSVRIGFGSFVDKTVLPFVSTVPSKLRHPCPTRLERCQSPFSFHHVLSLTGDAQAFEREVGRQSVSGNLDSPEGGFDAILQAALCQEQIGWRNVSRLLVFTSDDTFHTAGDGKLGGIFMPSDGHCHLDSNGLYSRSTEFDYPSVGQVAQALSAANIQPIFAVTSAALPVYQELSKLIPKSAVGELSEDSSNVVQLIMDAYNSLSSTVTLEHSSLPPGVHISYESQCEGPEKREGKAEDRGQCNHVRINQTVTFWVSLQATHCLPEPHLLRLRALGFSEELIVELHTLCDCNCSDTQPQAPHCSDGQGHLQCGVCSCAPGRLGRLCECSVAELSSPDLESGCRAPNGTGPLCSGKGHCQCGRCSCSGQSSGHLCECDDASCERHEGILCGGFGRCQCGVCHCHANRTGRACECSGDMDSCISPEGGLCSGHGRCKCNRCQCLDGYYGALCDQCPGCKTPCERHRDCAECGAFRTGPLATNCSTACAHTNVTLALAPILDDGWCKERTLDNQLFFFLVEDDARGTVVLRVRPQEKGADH
The test can be described thus: Integrin α4β7—MAdCAM-1 ELISA competition assay. Type of test: binding. The conditions noted are these: for ELISA Assay Ratio b1/b7: ratio of a4b1 to a4b7 ELISA IC50; for IC50: read-out: ELISA a4b7 Assay IC50. In general terms: An ELISA detects its analyte on a solid surface through an enzyme-linked reagent.

Test [2] has as its target T2, recombinant integrin α4β1 (Homo sapiens, UniProt P05556+P13612).
T2 construct: purchased R&D Systems 5397-A3-050
The test can be described thus: Integrin α4β1—VCAM-1 competition ELISA. Type of test: binding. Particulars: read-out: ELISA a4b1 Assay IC50. In short, it runs like this:
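Compound dilutions added to coated plate and shaken at room temperature for 2 h (300 rpm) to binding equilibrium. Wash buffer: 50 mM Tris, 100 mM NaCl, 1 mM MnCl2, 0.05% Tween. Bound Fc-tagged ligand detected with anti-human IgG Fc-HRP, 1 h at room temperature.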

T2 sequence (P05556 21-728 limits assumed, one chain of several): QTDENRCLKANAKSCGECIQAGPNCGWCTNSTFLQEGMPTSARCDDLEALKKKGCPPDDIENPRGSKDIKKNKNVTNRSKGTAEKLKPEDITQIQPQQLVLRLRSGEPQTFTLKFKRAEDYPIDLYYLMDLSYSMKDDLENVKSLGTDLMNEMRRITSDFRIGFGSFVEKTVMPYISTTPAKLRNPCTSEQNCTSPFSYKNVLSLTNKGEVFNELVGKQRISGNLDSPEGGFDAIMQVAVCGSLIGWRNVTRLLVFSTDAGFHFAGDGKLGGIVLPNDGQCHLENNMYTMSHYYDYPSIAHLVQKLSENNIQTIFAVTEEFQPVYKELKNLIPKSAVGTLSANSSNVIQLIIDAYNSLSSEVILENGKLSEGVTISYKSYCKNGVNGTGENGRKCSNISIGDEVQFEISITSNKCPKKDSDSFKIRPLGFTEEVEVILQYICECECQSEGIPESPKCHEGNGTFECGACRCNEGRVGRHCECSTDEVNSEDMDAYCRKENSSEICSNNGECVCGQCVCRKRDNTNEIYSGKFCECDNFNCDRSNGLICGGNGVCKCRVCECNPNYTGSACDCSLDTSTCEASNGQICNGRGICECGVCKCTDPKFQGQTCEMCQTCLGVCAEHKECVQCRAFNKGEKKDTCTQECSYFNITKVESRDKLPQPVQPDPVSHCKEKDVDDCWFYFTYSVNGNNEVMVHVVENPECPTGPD

With `CC(C)C[C@@H]1NC(=O)C[C@H](CCCCN)NC(=O)[C@H](Cc2ccc(I)cc2)NC(=O)[C@@H]2CCCN2[C@H](C(=O)NC(C)(C)C)[C@H](C)NC(=O)[C@H]([C@@H](C)O)NC(=O)[C@H](CC(=O)O)NC1=O` [Compound 260], in test [1], the “ELISA Assay Ratio b1/b7” value came out at 58.1 and the IC50 was 165 nM. Besides, the half-inhibitory concentration (IC50) in test [2] is 9560 nM.

For `CC(C)C[C@@H]1NC(=O)C[C@H](CCCCN)NC(=O)[C@](C)(Cc2ccccc2)NC(=O)[C@@H]2CCCN2[C@H](C(=O)NC(C)(C)C)[C@H](C)NC(=O)[C@H]([C@@H](C)O)NC(=O)[C@H](CC(=O)O)NC1=O` [Compound 263], in test [1], the “ELISA Assay Ratio b1/b7” value was found to be 23.1 and the IC50 was 102 nM. For the same compound, in test [2], the half-inhibitory concentration (IC50) was determined as 2350 nM.

On to `Cc1cccc(C)c1-c1cccc(C[C@@H]2NC(=O)[C@@H]3CCCN3[C@H](C(=O)NC(C)(C)C)[C@H](C)NC(=O)[C@H]([C@@H](C)O)NC(=O)[C@H](CC(=O)O)NC(=O)[C@H](CC(C)C)NC(=O)C[C@H](CCCCN)NC2=O)c1` [Compound 265], for which, in test [1], the “ELISA Assay Ratio b1/b7” value came out at 46.2 and the IC50 was 39 nM. The concentration for half-maximal inhibition (IC50) in test [2] was 1820 nM.

Take `Cc1cccc(C)c1-c1ccc(C[C@@H]2NC(=O)[C@@H]3CCCN3[C@H](C(=O)NC(C)(C)C)[C@H](C)NC(=O)[C@H]([C@@H](C)O)NC(=O)[C@H](CC(=O)O)NC(=O)[C@H](CC(C)C)NC(=O)C[C@H](CCCCN)NC2=O)cc1` [Compound 268]: in test [1], the “ELISA Assay Ratio b1/b7” value was 24.6. In addition, the 50% inhibitory concentration (IC50) was determined as 76 nM in test [1] and 1870 nM in test [2].

With `COc1cccc(Cl)c1-c1ccc(C[C@@H]2NC(=O)[C@@H]3CCCN3[C@H](C(=O)NC(C)(C)C)[C@H](C)NC(=O)[C@H]([C@@H](C)O)NC(=O)[C@H](CC(=O)O)NC(=O)[C@H](CC(C)C)NC(=O)C[C@H](CCCCN)NC2=O)cc1` [Compound 269], in test [1], the “ELISA Assay Ratio b1/b7” value was 31.6 and the IC50 was 56 nM. The IC50 in test [2] amounted to 1760 nM.

With `CC(C)C[C@@H]1NC(=O)C[C@H](CCCCN)NC(=O)[C@H](Cc2ccccc2-c2ccc(N3CCNCC3)cc2)NC(=O)[C@@H]2CCCN2[C@H](C(=O)NC(C)(C)C)[C@H](C)NC(=O)[C@H]([C@@H](C)O)NC(=O)[C@H](CC(=O)O)NC1=O` [Compound 271], in test [1], the “ELISA Assay Ratio b1/b7” value is on record as 34.6. The half-maximal inhibitory concentration (IC50) in test [2] worked out at 1150 nM.

In the case of `CC(C)C[C@@H]1NC(=O)C[C@H](CCCCN)NC(=O)C2(CCNCC2)NC(=O)[C@@H]2CCCN2[C@H](C(=O)NC(C)(C)C)[C@H](C)NC(=O)[C@H]([C@@H](C)O)NC(=O)[C@H](CC(=O)O)NC1=O` [Compound 275], the “ELISA Assay Ratio b1/b7” value in test [1] is reported as 7.7. Also, the figures for the IC50 in test [1] and in test [2] were 101 nM and 779 nM, respectively.

Consider `CC[C@@H](C)[C@@H]1NC(=O)[C@H](CC(=O)O)NC(=O)[C@H](CC(C)C)NC(=O)C[C@H](CCCCN)NC(=O)[C@H](Cc2ccc(CN)cc2)NC(=O)[C@@H]2CCCN2[C@H](C(=O)NC(C)(C)C)[C@H](C)NC1=O` [Compound 285], for which, in test [1], the “ELISA Assay Ratio b1/b7” value stood at 6.2 and the 50% inhibitory concentration (IC50) worked out at 89 nM. For the same compound, in test [2], the 50% inhibitory concentration (IC50) was 553 nM.

In the case of `CC(C)C[C@@H]1NC(=O)C[C@H](CCCCN)NC(=O)C2(Cc3ccccc3C2)NC(=O)[C@@H]2CCCN2[C@H](C(=O)NC(C)(C)C)[C@H](C)NC(=O)[C@H]([C@@H](C)O)NC(=O)[C@H](CC(=O)O)NC1=O` [Compound 288], in test [1], the “ELISA Assay Ratio b1/b7” value worked out at 12.2. Besides, the half-inhibitory concentration (IC50) in test [1] worked out at 136 nM; in test [2] it was 1660 nM.

For the compound `CC(C)C[C@@H]1NC(=O)C[C@H](CCCCN)NC(=O)CN(Cc2ccccc2)C(=O)[C@@H]2CCCN2[C@H](C(=O)NC(C)(C)C)[C@H](C)NC(=O)[C@H]([C@@H](C)O)NC(=O)[C@H](CC(=O)O)NC1=O` [Compound 296], in test [1], the “ELISA Assay Ratio b1/b7” value is recorded as 94.8. Also, the IC50 in test [2] is 14700 nM.

As for `CC(C)C[C@@H]1NC(=O)c2ccc(-c3ccncc3)c(c2)CNC(=O)[C@H](Cc2ccc(O)cc2)NC(=O)[C@@H]2CCCN2[C@H](C(=O)NC(C)(C)C)[C@H](C)NC(=O)[C@H]([C@@H](C)O)NC(=O)[C@H](CC(=O)O)NC1=O` [Compound 337], in test [1], the “ELISA Assay Ratio b1/b7” value stood at 2.9 and the 50% inhibitory concentration (IC50) is 61 nM. Also, the concentration for half-maximal inhibition (IC50) in test [2] was determined as 177 nM.

Regarding `CC(C)C[C@@H]1NC(=O)c2ccc(-c3cccc4ncccc34)c(c2)CNC(=O)[C@@H]2CCCN2[C@H](C(=O)NC(C)(C)C)[C@H](C)NC(=O)[C@H]([C@@H](C)O)NC(=O)[C@H](CC(=O)O)NC1=O` [Compound 347], in test [1], the “ELISA Assay Ratio b1/b7” value is 1.3. The values for the IC50 in test [1] and in test [2] were 23 nM and 30 nM, respectively.

For `CC(C)C[C@@H]1NC(=O)c2ccc(-c3ccccc3N3CCNCC3)c(c2)CNC(=O)[C@@H]2CCCN2[C@H](C(=O)NC(C)(C)C)[C@H](C)NC(=O)[C@H]([C@@H](C)O)NC(=O)[C@H](CC(=O)O)NC1=O` [Compound 348], in test [1], the “ELISA Assay Ratio b1/b7” value stood at 1.5 and the 50% inhibitory concentration (IC50) was found to be 27 nM. Also, the IC50 in test [2] is 41 nM.

On to `CC(C)C[C@@H]1NC(=O)c2cccc(c2)CNC(=O)[C@@H]2CCCN2[C@H](C(=O)NC(C)(C)C)[C@H](C)NC(=O)[C@H]([C@@H](C)O)NC(=O)[C@H](CC(=O)O)NC1=O` [Compound 358], for which the “ELISA Assay Ratio b1/b7” value in test [1] stood at 8.7. The 50% inhibitory concentration (IC50) in test [1] worked out at 127 nM; in test [2] it was 1110 nM.

As to `CC(C)C[C@@H]1NC(=O)c2cc(cc(-c3ccncc3)c2)CNC(=O)[C@@H]2CCCN2[C@H](C(=O)NC(C)(C)C)[C@H](C)NC(=O)[C@H]([C@@H](C)O)NC(=O)[C@H](CC(=O)O)NC1=O` [Compound 362], in test [1], the “ELISA Assay Ratio b1/b7” value is recorded as 5.6. For the same compound, the IC50 in test [1] came out at 43 nM; in test [2], 238 nM.

What is called IC50 is the concentration needed to halve the response being measured.
